{"source": "patent US20030161866A1", "about": "“Novel pharmaceutical formulation to limit or delay surface absorption” (priority 2000, published 2003)", "key": {"[1]": {"conditions": "within two hours of administration; cited from earlier work"}, "[2]": {"experiment": "Evaporation (weight loss) of DEET/IPA/clay samples under nitrogen", "type": "physicochemical", "conditions": "no added IPA, over 12 hours under nitrogen, relative to amount of DEET", "experimental": "The samples prepared above were held at room temperature in the hood under nitrogen over a 12 hour period. Evaporation rates were measured every hour.\nSamples of the HDTMA clay/DEET/IPA matrix were mixed as illustrated in Example 1. Volatile components of the matrix were evaporated using a constant flow of nitrogen over 12 hours in fume hood. Control samples of DEET with IPA only and DEET alone were subjected to the same conditions as the DEET with HDTMA treated clay.\nWeight loss of the samples over 12 hours was used as a measure of the extent of evaporation. Samples were weighed at the beginning of the experiment (time 0) and at hourly intervals thereafter. Reported values are the difference between the original weight of formulation and the weight at sampling time, expressed as a percentage of the amount of IPA added to each. For the controls without IPA, percent weight loss was calculated relative to the amount of DEET in the original sample."}, "[3]": {"experiment": "Visual (turbidity) solubility of DEET in IPA and water", "type": "physicochemical", "conditions": "aqueous with cosolvent or surfactant or cyclodextrin, thermodynamic from solid, read-out: limit of DEET solubility", "experimental": "Homogenous solutions of different concentrations of DEET with varying percentages of IPA in water were prepared and subsequently incorporated into the clay. Solutions of 30%, 40%, and 50% IPA in water were prepared. DEET was completely miscible with IPA, which was also completely miscible with water. The addition of DEET to the solvent mixture was therefore expected to produce a single homogenous phase within the limits of its solubility. Solutions were prepared consisting of the solvent systems and varying concentrations of DEET, from 12.5-200 mg/ml. DEET was added to the solvent in increments of 50 mg until the solution appeared turbid after vortexing for 5 seconds. Turbidity was used as a marker for saturation.\nOnce various solvents were mixed with DEET, turbidity of the samples was used as a marker for saturation. All DEET spiking solutions were below saturation point."}, "[4]": {"conditions": "24 hours after administration of the last dose; cited from earlier work"}}, "note": "Where two headings read alike, the source gives them in different places.", "data": [{"smiles": "CCN(CC)C(=O)c1cccc(C)c1", "note": "[DEET, N,N-diethyl-m-toluamide]", "values": [{"measurement": "dose administered topically that is absorbed", "setting": "[1]", "value": "Approximately 17%"}, {"measurement": "weight loss", "setting": "[2]", "value": 4, "unit": "%"}, {"measurement": "solubility at 5 seconds", "setting": "[3]; 30% IPA in water, 30% IPA in water", "value": 115, "unit": "mg/mL"}, {"measurement": "solubility at 5 seconds", "setting": "[3]; 40% IPA in water, 40% IPA in water", "value": 200, "unit": "mg/mL"}, {"measurement": "solubility at 5 seconds", "setting": "[3]; 50% IPA in water, 50% IPA in water", "value": 200, "unit": "mg/mL"}, {"measurement": "absorbed dose recovered in the urine", "setting": "[4]", "value": "~90", "unit": "%"}]}]}
